Measurements: patent publication US20140357512A1, “HISTONE DEACETYLASE (HDAC) BIOMARKERS IN MULTIPLE MYELOMA” (priority 2013, published 2014)

Tested on: human myeloma cell line MM.1S
Assay: SILAC acetylated-lysine peptide profiling, HDAC inhibitor vs DMSO (light/heavy ratio)
Assay type: cell-based
Text: An embodiment of the invention comprises utilizing the SILAC method in order to quantitate changes in protein expression between two or more populations of cells. The SILAC method is a technique based on mass spectrometry that detects differences in protein abundance among samples using non-radioactive isotopic labeling. The SILAC method is known in the art, and described in detail in Ong et al., “Stable Isotope Labeling by Amino Acids in Cell Culture, SILAC, as a Simple and Accurate Approach to Expression Proteomics”, Molecular & Cellular Proteomics, vol. 1, pp. 376-386 (2002), which is incorporated herein by reference in its entirety.
Briefly, the SILAC method involves growing two populations of cells in cell culture. The first population of cells is grown in growth media containing normal amino acids (“normal media”). The second population of cells is grown in media lacking a standard essential amino acid (such as lysine), but is then supplemented with a non-radioactive, isotopically labeled form of that essential amino acid (such as lysine labeled with ^13C atoms, rather than normal ^12C atoms), which is called “heavy media”. When the two populations of cells are each growing in the medium, they incorporate the amino acids into all of their proteins. The growth of cells maintained in the heavy media is no different from that in normal media. All peptides containing the heavy amino acids are heavier than their normal counterparts. The cells from each of the two populations of cells are lysed. The lysates from each of the two cell populations are then combined. The combined cell lysates are then analyzed by mass spectrometry. Pairs of chemically identical peptides of different stable isotope composition can be differentiated in a mass spectrometer due to their difference in mass. The ratio of peak intensities in the mass spectrum for such peptide pairs reflects the abundance ratio for the two proteins.
This example describes SILAC studies that were performed to compare the effects of three different HDAC inhibitors (Compound A, Compound B, and tubastatin A) to a control on a human multiple myeloma cell line. The HDAC inhibitors were also compared amongst themselves to determine differences in their effects.
A human myeloma cell line MM.1S was grown using either ^12C (light) or ^13C (heavy) lysine containing culture medium. The “heavy” cells were treated with DMSO as the control, and the “light” cells were treated with a single HDAC inhibitor at 37° C. for 6 hours. The heavy and light cells were lysed, and the lysates were mixed in 1:1 ratio and digested with the protease trypsin. The acetylated lysine containing peptides (due to the action of the HDAC inhibitor) in the digested peptide pool were captured by a non-specific anti-acetylated lysine antibody cocktail (the antibodies identify both light and heavy acetylated peptides), and subjected to mass spectrometry analysis in order to identify thousands of individual peptides.
Thousands of peptides were identified in pairs (^12C and ^13C) due to their known mass differences. The amino acid sequence and quantitative ratio (Light/Heavy) of a given peptide in two differentially treated cell lysates were then determined and annotated with their possible protein (gene) sources.
As stated above, three HDAC inhibitors (Compound A, Compound B, and Tubastatin A) were used. Thus, the SILAC method was performed three times, with a different HDAC inhibitor compared to a control each time. Accordingly, there are three pairs of quantitative data in the table below, i.e., Compound A:DMSO, Compound B:DMSO, and Tubastatin A:DMSO. A cut-off of 1.30 fold of change (increase or decrease) was then used to determine “changed” or “+” in the table, and any peptides with a fold of change less than 1.3 fold were determined to be “unchanged” or “0” in the table. Those peptides that were not identified were marked as “NA” in the table. […]

O=C(NO)c1cnc(NC2(c3cccc(F)c3)CCCCC2)nc1 [Compound B, 2-((1-(3-fluorophenyl)cyclohexyl)amino)-N-hydroxypyrimidine-5-carboxamide]
−0.41 log 2: L/H ratio of acetylated peptide (GNTPK(ac)[…] (SEQ ID NO: 449), Nucleolar protein 56 [347], SNORD110, SNORD86, NOP56)
−0.57 log 2: L/H ratio of acetylated peptide (GYGFGLIK(ac)LDLK (SEQ ID NO: 465), Voltage-dependent anion-selective channel protein 1 [28], VDAC1)
−0.42 log 2: L/H ratio of acetylated peptide (GK(ac)LEEQRPER (SEQ ID NO: 459), Tumor protein translationally-controlled 1 [102], TPT1)
0.00 log 2: light to heavy ratio (L/H ratio) of acetylated peptide AVDLIQK(ac)HK (SEQ ID NO: 546) (Flap endonuclease 1 [252], gene FEN1, inhibitor:DMSO) | light to heavy ratio (L/H ratio) of acetylated peptide (ac)[…](ac)PGECLR (SEQ ID NO: 575) (Galectin-1 [13], gene LGALS1, inhibitor:DMSO) | light to heavy ratio (L/H ratio) of acetylated peptide ISGASEK(ac)[…] (SEQ ID NO: 543) (Glutamate dehydrogenase 1 mitochondrial [503], gene GLUD1, inhibitor:DMSO) | light to heavy ratio (L/H ratio) of acetylated peptide […](ac)YDNSLK (SEQ ID NO: 620) (Glyceraldehyde-3-phosphate dehydrogenase [139], gene GAPDH, inhibitor:DMSO) | light to heavy ratio (L/H ratio) of acetylated peptide VVK(ac)QASEGPLK (SEQ ID NO: 597) (Glyceraldehyde-3-phosphate dehydrogenase [263], gene GAPDH, inhibitor:DMSO) | light to heavy ratio (L/H ratio) of acetylated peptide AHLQK(ac)LMSDK (SEQ ID NO: 549) (Glycyl-tRNA synthetase [224], gene GARS, inhibitor:DMSO) | light to heavy ratio (L/H ratio) of acetylated peptide FSPDDK(ac)YSR (SEQ ID NO: 504) (H/ACA ribonucleoprotein complex subunit 3 [40], gene NOP10, inhibitor:DMSO)
1.00 log 2: L/H ratio of acetylated peptide (GK(ac)YMLVR (SEQ ID NO: 377), Carbohydrate sulfotransferase 1 [296], CHST1)
0.00: light to heavy ratio (L/H ratio) of acetylated peptide, log 2 scale (FLNAENAQK(ac)FK (SEQ ID NO: 200), Ran-specific GTPase-activating protein [150], RANBP1) | light to heavy ratio (L/H ratio) of acetylated peptide, log 2 scale (FNQK(ac)GEVYK (SEQ ID NO: 149), Lipoamide acyltransferase component of branched-chain alpha-keto acid dehydrogenase complex mitochondrial [435], DBT) | light to heavy ratio (L/H ratio) of acetylated peptide, log 2 scale (FPHSAHQK(ac)YVR (SEQ ID NO: 253), Ribosomal protein L14 variant [71], RPL14) | light to heavy ratio (L/H ratio) of acetylated peptide, log 2 scale (FWNK(ac)FLENK (SEQ ID NO: 187), NADH dehydrogenase [ubiquinone] 1 beta subcomplex subunit 6 [49], NDUFB6) | light to heavy ratio (L/H ratio), log 2 scale, acetylated peptide GGVVGIK(ac)VDK (SEQ ID NO: 774) (Fructose-bisphosphate aldolase A [108], gene ALDOA, drug:DMSO) | L/H ratio of acetylated peptide ASGLAAGK(ac)GVIVAK (SEQ ID NO: 37) (GART [156], log 2 scale, drug vs DMSO) | light to heavy ratio (L/H ratio) of acetylated peptide, log 2 scale (GDASK(ac)EDIDTAMK (SEQ ID NO: 161), Isoform 1 of Hydroxyacyl-coenzyme A dehydrogenase mitochondrial [241], HADH) | light to heavy ratio (L/H ratio) of acetylated peptide, log 2 scale (GDGTGGK(ac)SIYGER (SEQ ID NO: 196), Peptidyl-prolyl cis-trans isomerase B [116], PPIB) | light to heavy ratio (L/H ratio) of acetylated peptide, log 2 scale (GFGGK(ac)YGVER (SEQ ID NO: 162), Hematopoietic lineage cell-specific protein [123], HCLS1) | light to heavy ratio (L/H ratio) of acetylated peptide, log 2 scale (GIVK(ac)DIIHDPGR (SEQ ID NO: 207), 60S ribosomal protein L8 [46], RPL8) | light to heavy ratio (L/H ratio) of acetylated peptide, log 2 scale (GLFIIDDK(ac)GILR (SEQ ID NO: 197), Peroxiredoxin-1 [136], PRDX1) | L/H ratio of acetylated peptide LVK(ac)VWNLANCK (SEQ ID NO: 39) (GNB2L1 [175], log 2 scale, drug vs DMSO) | L/H ratio of acetylated peptide IIVDELK(ac)QEVISTSSK (SEQ ID NO: 38) (GNB2L1 [271], log 2 scale, drug vs DMSO) | L/H ratio of acetylated peptide (ac)AHYNFK(ac)K (SEQ ID NO: 40) (GTPBP4 [7], log 2 scale, drug vs DMSO) | light to heavy ratio (L/H ratio) of acetylated peptide, log 2 scale (GYLTK(ac)EDLR (SEQ ID NO: 216), Protein S100-A10 [28], S100A10) | light to heavy ratio (L/H ratio), log 2 scale, acetylated peptide LLLLGAGESGK(ac)STIVK (SEQ ID NO: 769) (Guanine nucleotide-binding protein G(olf) subunit alpha [55], gene GNAL, drug:DMSO) | L/H ratio of acetylated peptide GQQQVFK(ac)GLNDK (SEQ ID NO: 41) (HADHA [406], log 2 scale, drug vs DMSO)
0.69 log 2: L/H ratio of acetylated peptide (GLAPQNK(ac)PELQK (SEQ ID NO: 393), Isoform 2 of Protein FAM107B [225], FAM107B)
−1.00 log 2: L/H ratio of acetylated peptide (FQAK(ac)[…] (SEQ ID NO: 415), Microtubule-associated protein RP/EB family member 1 [66], MAPRE1)
0.95: L/H ratio of acetylated peptide AGGK(ac)AGK(ac)DSGK (SEQ ID NO: 15) (H2AFV [5:8], log 2 scale, drug vs DMSO)
−0.40: L/H ratio of acetylated peptide EPVAVLK(ac)ANR (SEQ ID NO: 9) (HEXB [161], log 2 scale, drug vs DMSO)
